Source: ChEMBL document CHEMBL1201862, “PubChem BioAssay data set” (2004)
Activity calls are given as the source filed them. Cut-off read from the data, not from the text of the source, for most assays here: actives have a measured EC50 and inactives only a lower limit.

Columns and labels:
[1] = test system: Streptococcus sp. 'group A'; assay: growth inhibition of control SK(-) GAS strain, dose response, counter-screen for streptokinase expression inhibitor project, luminescence, kanamycin, BacTiterGlo, confirmation (AID 1900); type: functional, organism-based
Streptokinase A = target: T1, Streptokinase A (Streptococcus pyogenes serotype M1, UniProt P10520); assay: S. pyogenes streptokinase expression inhibitors, potency, dose response, plasminogen activation absorbance, OD405 (AID 1914); type: functional, Streptococcus pyogenes M1 GAS;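 note: secreted streptokinase activity via plasminogen activation per viability signal from cell pellet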
T1 sequence (P10520 whole entry): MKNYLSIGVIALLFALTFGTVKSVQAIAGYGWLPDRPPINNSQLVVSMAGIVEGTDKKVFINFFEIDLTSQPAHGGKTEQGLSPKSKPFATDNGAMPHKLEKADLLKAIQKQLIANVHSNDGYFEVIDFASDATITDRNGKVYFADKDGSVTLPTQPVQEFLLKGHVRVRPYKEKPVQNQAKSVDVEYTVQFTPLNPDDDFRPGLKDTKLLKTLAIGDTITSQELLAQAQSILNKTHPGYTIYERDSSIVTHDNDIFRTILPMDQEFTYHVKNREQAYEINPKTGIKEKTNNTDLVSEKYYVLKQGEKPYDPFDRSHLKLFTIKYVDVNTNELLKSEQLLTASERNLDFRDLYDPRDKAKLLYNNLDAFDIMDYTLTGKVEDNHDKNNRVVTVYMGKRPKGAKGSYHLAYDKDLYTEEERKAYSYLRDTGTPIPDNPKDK

Streptococcus = assay: Group A Streptococcus viability loss, dose response, counter-screen for streptokinase expression inhibitor project, luminescence, BacTiterGlo (AID 1915); type: functional, organism-based; details: read-out: EC50;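 note: potency for reduction of bacterial viability or growth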
[2] = target: T2, Corticotropin-releasing factor receptor 2/Corticotropin-releasing factor-binding protein (Homo sapiens, UniProt P24387+Q13324); assay: activators of CRF receptor 2 with binding protein – uHTS hits, confirmation (AID 602473); type: functional; details: read-out: EC50_Mean
T2 sequence (Q13324 whole entry): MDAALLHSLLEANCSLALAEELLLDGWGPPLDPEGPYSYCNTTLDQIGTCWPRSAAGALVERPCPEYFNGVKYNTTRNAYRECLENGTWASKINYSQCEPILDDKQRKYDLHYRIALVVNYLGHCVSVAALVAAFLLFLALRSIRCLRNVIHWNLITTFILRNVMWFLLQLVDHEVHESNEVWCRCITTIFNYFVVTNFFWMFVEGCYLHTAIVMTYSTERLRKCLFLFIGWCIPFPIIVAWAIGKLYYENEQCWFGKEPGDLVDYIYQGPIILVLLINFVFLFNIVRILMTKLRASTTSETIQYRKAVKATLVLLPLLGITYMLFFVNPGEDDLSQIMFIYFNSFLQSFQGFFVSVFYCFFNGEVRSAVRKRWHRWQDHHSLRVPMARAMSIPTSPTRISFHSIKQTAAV
T2 sequence (P24387 whole entry): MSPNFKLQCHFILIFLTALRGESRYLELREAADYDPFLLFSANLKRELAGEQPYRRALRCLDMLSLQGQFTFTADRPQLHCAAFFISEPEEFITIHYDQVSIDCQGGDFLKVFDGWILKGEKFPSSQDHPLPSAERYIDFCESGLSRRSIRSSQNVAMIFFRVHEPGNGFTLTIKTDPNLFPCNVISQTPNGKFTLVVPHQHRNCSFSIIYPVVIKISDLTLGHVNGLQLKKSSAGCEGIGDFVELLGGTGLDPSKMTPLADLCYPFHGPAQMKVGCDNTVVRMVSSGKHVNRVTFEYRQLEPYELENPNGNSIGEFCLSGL

[3] = target: T3, Replicative DNA helicase DnaB (Mycobacterium tuberculosis, UniProt P9WMR3); assay: DnaB intein splicing inhibitors, dose response, biochemical, cell-free fluorescence (AID 449749); type: functional
T3 sequence (P9WMR3 whole entry): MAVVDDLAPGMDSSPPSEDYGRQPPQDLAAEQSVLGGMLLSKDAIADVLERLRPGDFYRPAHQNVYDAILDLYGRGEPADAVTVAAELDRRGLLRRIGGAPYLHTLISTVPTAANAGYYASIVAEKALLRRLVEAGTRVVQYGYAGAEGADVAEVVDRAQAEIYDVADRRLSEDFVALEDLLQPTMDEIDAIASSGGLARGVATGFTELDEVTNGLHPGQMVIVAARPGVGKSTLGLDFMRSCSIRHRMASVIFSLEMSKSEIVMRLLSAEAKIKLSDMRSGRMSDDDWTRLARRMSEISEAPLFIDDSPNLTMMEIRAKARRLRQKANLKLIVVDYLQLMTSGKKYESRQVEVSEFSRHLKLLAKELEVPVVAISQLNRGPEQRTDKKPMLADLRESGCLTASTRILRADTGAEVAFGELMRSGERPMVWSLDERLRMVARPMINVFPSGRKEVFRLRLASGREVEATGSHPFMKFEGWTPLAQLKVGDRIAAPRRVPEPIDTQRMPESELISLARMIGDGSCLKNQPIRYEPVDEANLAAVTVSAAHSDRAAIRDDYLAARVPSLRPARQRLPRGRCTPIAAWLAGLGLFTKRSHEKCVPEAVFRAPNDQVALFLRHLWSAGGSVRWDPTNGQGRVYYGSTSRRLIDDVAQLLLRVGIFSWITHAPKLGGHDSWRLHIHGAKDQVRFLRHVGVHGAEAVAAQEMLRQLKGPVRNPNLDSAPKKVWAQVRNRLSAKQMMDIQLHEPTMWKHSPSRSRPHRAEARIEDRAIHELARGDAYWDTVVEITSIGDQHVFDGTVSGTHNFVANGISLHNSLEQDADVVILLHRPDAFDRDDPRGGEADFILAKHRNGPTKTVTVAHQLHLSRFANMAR

Protein RecA = target: T4, Protein RecA (Mycobacterium tuberculosis, UniProt P9WHJ3); assay: Fluorescence Cell-Free Homogeneous Dose Retest to Identify Inhibitors of RecA-Intein Splicing Activity. [Related pubchem assays (depositor defined):AID2097, AID2223, AID489010, AID492950]; type: functional
T4 sequence (P9WHJ3 whole entry): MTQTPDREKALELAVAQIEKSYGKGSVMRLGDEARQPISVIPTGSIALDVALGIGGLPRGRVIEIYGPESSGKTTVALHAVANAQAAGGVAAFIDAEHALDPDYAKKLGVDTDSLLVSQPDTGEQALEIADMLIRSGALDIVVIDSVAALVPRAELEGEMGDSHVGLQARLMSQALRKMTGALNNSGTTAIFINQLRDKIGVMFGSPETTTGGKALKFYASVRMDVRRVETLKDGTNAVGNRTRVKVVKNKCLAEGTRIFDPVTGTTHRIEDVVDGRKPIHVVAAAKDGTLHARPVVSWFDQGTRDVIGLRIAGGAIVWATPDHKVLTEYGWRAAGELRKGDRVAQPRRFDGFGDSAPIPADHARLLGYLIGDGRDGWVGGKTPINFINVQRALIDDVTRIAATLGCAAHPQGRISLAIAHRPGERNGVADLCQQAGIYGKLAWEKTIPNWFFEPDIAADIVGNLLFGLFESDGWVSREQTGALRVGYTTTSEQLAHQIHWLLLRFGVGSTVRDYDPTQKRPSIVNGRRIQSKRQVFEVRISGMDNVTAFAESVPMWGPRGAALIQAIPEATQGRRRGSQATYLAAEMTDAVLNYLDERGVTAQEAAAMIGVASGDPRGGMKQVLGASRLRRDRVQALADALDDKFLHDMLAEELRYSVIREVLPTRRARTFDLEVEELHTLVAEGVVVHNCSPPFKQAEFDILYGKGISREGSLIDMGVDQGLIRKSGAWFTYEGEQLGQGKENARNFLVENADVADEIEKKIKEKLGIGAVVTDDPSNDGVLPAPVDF

[4] = NIH-3T3 fibroblast cytotoxicity, dose response, cytotoxicity control, cell-based, fluorescence, Alamar Blue, secondary assay (AID 2327); type: functional;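 note: NIH-3T3 mouse fibroblasts cultured with fluconazole at 8 µg/mL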
[5] = C. albicans growth with fluconazole, confirmation, fluorescence, retest (AID 2467); type: functional, cell-based
[6] = target: T5, Heat shock factor protein 1 (Mus musculus, UniProt P38532); assay: inhibition of MG132-induced HSE-luciferase signal, confirmation, cell-based, NIH3T3, luminescence, dose retest (AID 2382); type: functional;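 note: NIH3T3 fibroblasts with HSF1-driven luciferase reporter stressed by proteasome inhibitor MG132; luminescence from HSF1-driven luciferase expression after 8 hours of MG132 stress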
T5 sequence (P38532 whole entry): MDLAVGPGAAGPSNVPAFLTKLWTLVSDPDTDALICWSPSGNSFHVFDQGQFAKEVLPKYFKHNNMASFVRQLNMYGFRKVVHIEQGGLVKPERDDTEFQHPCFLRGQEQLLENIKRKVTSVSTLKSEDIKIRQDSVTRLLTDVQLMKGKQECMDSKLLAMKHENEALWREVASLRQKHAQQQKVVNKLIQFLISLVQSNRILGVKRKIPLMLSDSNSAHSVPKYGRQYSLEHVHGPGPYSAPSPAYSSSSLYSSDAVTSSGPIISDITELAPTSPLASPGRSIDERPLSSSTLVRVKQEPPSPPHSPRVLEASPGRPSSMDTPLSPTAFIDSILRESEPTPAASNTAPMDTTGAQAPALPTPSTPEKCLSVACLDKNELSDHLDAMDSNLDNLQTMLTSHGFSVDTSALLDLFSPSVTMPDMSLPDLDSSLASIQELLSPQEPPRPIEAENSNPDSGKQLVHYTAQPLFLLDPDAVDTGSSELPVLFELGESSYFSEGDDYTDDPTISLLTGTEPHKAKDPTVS

[7] = Shn3 3'UTR reporter inhibitors, dose response, cell-based, Clone20 osteoblasts, firefly luciferase, cherry-picked (AID 624132); type: functional;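 note: firefly luciferase luminescence from reporter carrying the Shn3 3'UTR in osteoblasts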

| Structure (SMILES) | EC50 [1] | EC50 (Streptococcus) | AC50 [3] | EC50 (Protein RecA) | also measured |
| --- | --- | --- | --- | --- | --- |
| c1ccc(-c2oc3ncnc(NCCCn4ccnc4)c3c2-c2ccccc2)cc1 | 23.4 µM (active) | > 150 µM (not active) | – | – | EC50 (Streptokinase A): > 150 µM (not active) |
| Cc1cccc(Cc2cnc(NC(=O)c3ccc(C)o3)s2)c1 | 16.6 µM (active) | > 150 µM (not active) | – | – | EC50 (Streptokinase A): > 150 µM (not active) |
| O=C(/C=C/c1ccco1)NC(=S)Nc1ccc(N2CCOCC2)c(Cl)c1 | 109 µM (active) | 54.4 µM (active) | – | – | EC50 (Streptokinase A): > 150 µM (not active) |
| CC(=O)c1c(C)c2c(n1CCN(C)C)CCCC2 | – | – | – | – | EC50 [2]: 2.74 µM (active) |
| Cc1cc(C)c(-c2cc(NC(=O)COC(=O)c3ccc(CO)cc3)n(-c3ccccc3)n2)cc1C | 5.49 µM (active) | 32.4 µM (active) | – | – | EC50 (Streptokinase A): 48.4 µM (active) |
| CCN(CC)S(=O)(=O)c1ccc(NN=C(C#N)C#N)cc1 | – | – | 5.03 µM (active) | 15 µM (active) | – |
| COc1ccc(-c2csc(Nc3ccc(O)cc3)n2)cc1 | – | – | 37.2 µM (active) | 123 µM (active) | – |
| COc1ccc(C(=O)NCCN2CCOCC2)c(OC)c1OC | – | – | – | – | EC50 [4]: > 150 µM (inactive); EC50 [5]: > 38 µM (not active) |
| O=C(CCS(=O)(=O)c1cccc2nsnc12)N1CCN(C(=O)c2ccco2)CC1 | – | – | – | – | EC50 [4]: > 160 µM (inactive); EC50 [5]: > 38 µM (not active) |
| CC1=NNC(=O)C1C(c1cccc(O)c1)C(C#N)C#N (configuration not stated) | – | – | 28.3 µM (active) | 12.7 µM (active) | – |
| Cn1c(-[n+]2c(-c3ccccc3)cc(-c3ccccc3)cc2-c2ccccc2)nc2c([N+](=O)[O-])cccc21 | – | – | 15.3 µM (active) | 15.3 µM (active) | – |
| Cc1ccc2c(ccc[n+]2CC(=O)c2ccccc2)c1 | – | – | – | – | EC50 [4]: > 150 µM (inactive); EC50 [5]: > 38 µM (not active) |
| O=C(Nc1ccc(Cl)c(Cl)c1)N1CC=C(c2ccccc2)CC1 | 9.92 µM (active) | 21 µM (active) | – | – | EC50 (Streptokinase A): 11.9 µM (active) |
| Cc1oc(-c2cccs2)nc1CN1CCN(Cc2ccc(F)c(F)c2)C(CCO)C1 (configuration not stated) | – | – | – | – | EC50 [4]: > 150 µM (inactive); EC50 [5]: > 38 µM (not active) |
| O=C(NC1C(=O)NNC1c1ccc(Cl)cc1)c1ccc(F)cc1 (configuration not stated) | – | – | 13.1 µM (active) | 4.94 µM (active) | – |
| CC(=O)NC(=S)c1c(N)n(Cc2ccccc2)c(=O)n(C)c1=O | – | – | > 380 µM (inactive) | > 380 µM (inconclusive) | – |
| CCOc1cc(C(c2c(C)n[nH]c2O)c2c(C)n[nH]c2O)cc(Br)c1OC | – | – | 0.417 µM (active) | 0.231 µM (active) | EC50 [6]: > 195 µM (not active) |
| Cc1cc(C(=O)c2ccccc2)c(NC(=O)CCl)s1 | – | – | 14.2 µM (active) | 2.83 µM (active) | – |
| Cc1cc(NC(=O)CC2CCCC2)n(-c2nc3ccccc3[nH]2)n1 | 6.41 µM (active) | > 150 µM (not active) | – | – | EC50 (Streptokinase A): > 150 µM (not active) |
| Cn1c(=O)c(C(=O)COc2ccc(C#N)cc2)c(N)n(Cc2ccccc2)c1=O | – | – | – | – | EC50 [2]: 10.9 µM (active) |
| Cc1cccc(-n2nc(C(=O)c3ccco3)cc(-c3nc4ccccc4[nH]3)c2=N)c1 | 2.49 µM (active) | 5.95 µM (active) | – | – | EC50 [4]: > 160 µM (inactive); EC50 [5]: > 38 µM (not active) |
| O=C(Nc1ccccc1)c1ccccc1NC(=O)C(F)(F)F | – | – | – | – | EC50 [2]: > 53 µM (inactive) |
| COc1ccc2cc(C(=O)NCc3ccccc3)/c(=N/c3ccc(C(=O)O)cc3)oc2c1 | 10.2 µM (active) | 22.4 µM (active) | – | – | EC50 (Streptokinase A): > 150 µM (not active) |
| COc1ccc(C(=O)NNC(=O)c2cccc(S(=O)(=O)N3CCOCC3)c2)cc1 | – | – | – | – | AC50 [7]: 23.2 µM (active) |
| Clc1cccc(N/N=C/c2ccncc2)c1 | – | – | – | – | EC50 [4]: > 160 µM (inactive); EC50 [5]: > 38 µM (not active) |
| C[C@]12CC[C@@H](O)C[C@@H]1CC[C@@H]1[C@@H]2CC[C@]2(C)C(=O)CC[C@@H]12 [ANDROSTERONE] | – | – | – | – | AC50 [7]: 40.1 µM (active) |
